From patent US20090191283A1, “TREATMENT OF HEADACHES, NECK PAIN, JOINT PAIN AND INFLAMMATORY-TYPE PAIN” (priority 2008, published 2009)

Experiments:
Assay type in all cases: in vivo, human
[1] = test system: patient with dermatomyositis; assay: Treatment of patient with inflammatory arthropathies: dermatomyositis (case report)
Protocol: (c) A patient presented with a 10/10 pain level from Dermatomyositis, with the following symptoms: morning stiffness, diffuse polyarticular involvement, malaise, proximal muscle weakness, muscle tenderness
Prior treatment included narcotics, antiinflammatories, corticosteroids, disease-modifying anti-rheumatologic drugs (DMARDs) daily.
Treatment: 0.3 mg/hr nitroglycerin patch applied 2×/day (every 12 hours) to shoulder+3 pills of 250 mg sodium selenite/day (Twin Labs)

[2] = test system: patients with cervicogenic tension headaches; assay: Treatment of patients with cervicogenic tension headaches (case reports)
Protocol: (II) Treatment of Patients with Cervicogenic Tension Headaches
(a) A patient presented with cervicogenic tension headache with “severe” neck pain with an intensity of 7 or 8/10. The frequency of headaches was everyday and prior treatment included narcotics, NTHEs, Tylenol.
Treatment: 0.4 mg/hr nitroglycerin patch initially applied 1×/day to shoulder+2 pills of 250 mg sodium selenite/day (Twin Labs)
(b) A patient presented with cervicogenic headache with an intensity of 3-4×/wk. Prior treatment included narcotics, Tylenol, NTHEs. Patient was treated with 0.2 mg/hr nitroglycerin patch applied 1×/day applied to shoulder+2 pills of 250 mg sodium selenite/day (Twin Labs)
(c) A patient presented with migraine/cervicogenic headache with a frequency of everyday and an intensity of 7/10. Prior treatment included narcotics, NTHEs, acetaminophen, morphine cream.
Treatment: 0.4 mg/hr nitroglycerin patch applied 1×/day applied to shoulder+2 pills of 250 mg sodium selenite/day (initially) then 0.1 mg/hr nitroglycerin patch applied 1×/day applied to ankle+2 pills of 250 mg sodium selenite/day
(d) A patient presented with a daily cervicogenic tension headache, with an intensity of 10/10. Prior treatment included narcotics, Tylenol, NTHEs.
Treatment: 0.2 mg/hr nitroglycerin patch applied 1×/day to shoulder+3 pills of 250 mg sodium selenite/day (Twin Labs)
(e) A patient presented with a daily cervicogenic tension headache, with an intensity of 10/10. Prior treatment included narcotics, Tylenol, NTHEs, trigger point injections
Treatment: 0.2 mg/hr nitroglycerin patch applied 1×/day to shoulder+2 pills of 250 mg sodium selenite/day (Twin Labs)
(f) A patient presented with a daily cervicogenic tension headache, with an intensity of 7-8/10. Prior treatment included narcotics, Tylenol, NTHEs, trigger point injections
(g) A patient presented with a daily cervicogenic tension headache, with an intensity of 9-10/10. Prior treatment included narcotics, Tylenol, NTHEs, trigger point injections, BoTox which worked well for 3 months but is too expensive
Treatment: 0.2 mg/hr nitroglycerin patch applied 2×/day to shoulder+3 pills of 250 mg sodium selenite/day (Twin Labs).
(h) A patient presented with a daily cervicogenic tension headache with an intensity of 5/10. Prior treatment included narcotics, Tylenol, NTHEs, trigger point injections.
(i) A patient presented with a daily cervicogenic tension headache, with an intensity of 7-8/10. Prior treatment included narcotics, Tylenol, NTHEs, trigger point injections

[3] = test system: patients with migraine headaches; assay: Treatment of patients with migraine headaches (case reports)
Protocol: (I) Treatment of Patients with Migraine Headaches […]
(d) A patient presented with an every other day migraine headache with an intensity of 10/10, and the patient stated “The headaches were so bad that I was unable to work or enjoy my life.” Prior treatment included extensive workup by neurologists.
Treatment: 0.6 mg/hr nitroglycerin patch applied 2×/day (every 12 hours) to ankle for 1 week then shoulder+2 pills of 250 mg sodium selenite/day (Twin Labs) […]

[4] = test system: patients with rheumatoid arthritis; assay: Treatment of patients with inflammatory arthropathies: rheumatoid arthritis (case reports)
Protocol: Treatment of Patient with Inflammatory Arthropathies […]
(b) A patient presented with Rheumatoid Arthritis with pain levels of 10/10 and the following symptoms: morning stiffness, diffuse polyarticular involvement, malaise, weakness, myalgias
Prior treatment included narcotics, antiinflammatories, corticosteroids daily.
Treatment: 0.1 mg/hr nitroglycerin patch applied 2×/day (every 12 hours) to shoulder+2 pills of 250 mg sodium selenite/day (Twin Labs) […]

[5] = test system: patient with pseudotumor cerebri and morning headache from sleep apnea; assay: Treatment of patient with pseudotumor cerebri; conditions: for outcome of prior treatment: patient history
Protocol: (III) Treatment of Patient with Pseudotumor Cerebri
A patient presented with daily pseudotumor cerebri and morning headache from sleep apnea, with an intensity of 10/10. […] Patient was treated with 0.2 mg/hr nitroglycerin patch applied 2×/day to shoulder+3 pills of 250 mg sodium selenite/day (Twin Labs)

[6] = test system: patient with hemicrania continua; assay: Treatment of patient with hemicrania continua; conditions: patient history
Protocol: (II) Treatment of Patient with Hemicrania Continua
A patient presented with daily hemicrania continua with an intensity of 8-9/10. […] Patient was treated with 0.2 mg/hr nitroglycerin patch applied 2×/day to shoulder+2 pills of 250 mg sodium selenite/day (Twin Labs).

[7] = dermatomyositis patient (c), patient history

SMILES: CNC[C@H](O)c1cccc(O)c1.Cl [SUDAFED, phenylephrine hydrochloride]
- alleviation of treatment-induced headache by SUDAFED ([1]; dermatomyositis patient (c) on nitroglycerin patch + selenite): partially alleviated
- alleviation of treatment-induced headache by SUDAFED ([2]; cervicogenic patient (a) on nitroglycerin patch + selenite): unalleviated
- alleviation of treatment-induced headache by SUDAFED ([2]; cervicogenic patient (g) on nitroglycerin patch + selenite): partially alleviated
- alleviation of treatment-induced headache by SUDAFED ([2]; cervicogenic patient (i) on nitroglycerin patch + selenite): totally alleviated
- alleviation of treatment-induced headache by SUDAFED ([2]; cervicogenic patient on nitroglycerin patch + selenite): alleviated
- alleviation of treatment-induced headache by SUDAFED ([3]; migraine patient (a) on nitroglycerin patch + selenite): partially alleviated
- alleviation of treatment-induced headache by SUDAFED ([3]; migraine patient (b) on nitroglycerin patch + selenite): partially alleviated
- alleviation of treatment-induced headache by SUDAFED ([3]; migraine patient (d) on nitroglycerin patch + selenite): not alleviated
- alleviation of treatment-induced headache by SUDAFED ([3]; migraine patient (h) on nitroglycerin patch + selenite): partially alleviated
- alleviation of treatment-induced headache by SUDAFED ([3]; migraine patient on nitroglycerin patch + selenite): partially alleviated
- alleviation of treatment-induced headache by SUDAFED ([3]; migraine/tension patient (c) on nitroglycerin patch + selenite): not alleviated
- alleviation of treatment-induced headache by SUDAFED ([4]; RA patient (a) on nitroglycerin patch + selenite): partially alleviated
- alleviation of treatment-induced headache by SUDAFED ([4]; RA patient (b) on nitroglycerin patch + selenite): partially alleviated
- alleviation of treatment-induced headache by SUDAFED ([4]; RA patient (d) on nitroglycerin patch + selenite): partially alleviated
- alleviation of treatment-induced headache by SUDAFED ([4]; RA patient (e) on nitroglycerin patch + selenite): partially alleviated

SMILES: CNS(=O)(=O)Cc1ccc2[nH]cc(CCN(C)C)c2c1 [Imitrex, sumatriptan]
- effect of Imitrex on treatment-induced worsened headaches ([5]; patient on nitroglycerin patch + selenite): improved

SMILES: CC(=O)Nc1ccc(O)cc1 [Tylenol]
- outcome of prior treatment [6]: without success
- outcome of prior treatment [5]: without much success

SMILES: CC1(C)O[C@@H]2[C@@H](CO[C@@]3(COS(N)(=O)=O)OC(C)(C)O[C@@H]23)O1 [Topamax]
- outcome of prior treatment ([3]; migraine patient (d), patient history): without success
- outcome of prior treatment [5]: without much success

SMILES: C[C@]12C=CC(=O)C=C1CC[C@@H]1[C@@H]2C(=O)C[C@@]2(C)[C@H]1CC[C@]2(O)C(=O)CO [Prednisone]
- initial response to prior treatment [1, 7]: excellent response
- side effects of prior treatment [1, 7]: steroid-induced osteoporotic rib and wrist fractures
- side effects of prior treatment ([4]; RA patient (b), patient history, daily corticosteroids): Vertebral fractures and osteonecrosis

SMILES: CC(=O)Nc1nnc(S(N)(=O)=O)s1 [Diamox]
- outcome of prior treatment [5]: without much success
